Columns and labels:
Format in all cases: cell-based
[1] = system: S. mutans (ATCC 25175); assay: Determination of the minimum inhibitory concentration (MIC); conditions: Streptococcus mutans, ATCC25175; against S. Mutans
Protocol: (§1) A colony of bacterium taken from agar plate is inoculated in Brain Hearth Infusion medium (BHI) and grown overnight at 37° C. The next day, the bacteria are diluted in fresh medium containing the phenol red indicator, up to a density of 10^6 bacteria/mL.
(§2) A stock solution of 2 mg/mL of compound is prepared in BHI medium containing phenol red.
(§3) In a 96-well plate, the compound stock solution is diluted serially (the concentration is halved at each step) to obtain the following final concentrations after addition of the bacteria suspension: 1 mg/mL; 0.5 mg/mL; 0.25 mg/mL; 0.125 mg/mL; 0.065 mg/mL; 0.032 mg/mL; 0.016 mg/mL; 0.008 mg/mL; 0.004 mg/mL; 0.002 mg/mL; 0.001 mg/mL. A compound-free medium is used as a growth control. A volume of bacterial suspension equal to 0.5*10^6 bacteria/mL is added to each well containing the compound and the control. The dish is incubated at 37° C. for 24 hours. Bacterial growth in each well is detected by the phenol red, which turns from red to yellow following acidification of the medium induced by bacterial metabolism. The lowest concentration of the compound causing no evident color change corresponds to the MIC.
(§4) In order to test the antibacterial properties of the compounds prepared in Examples 1-8, on colonies of S. mutans (ATCC 25175), a bacterium commonly found in the human oral cavity, a test was set up to determine the minimum inhibitory concentration (MIC) and the minimum bactericidal concentration (MBC) according to the “Determination of minimum inhibitory concentration (MIC)” methods and “Determination of minimum bactericidal concentration (MBC)” described above.

[2] = system: S. mutans (ATCC 25175); assay: Determination of the minimum bactericidal concentration (MBC); conditions: Streptococcus mutans, ATCC25175; against S. Mutans
Protocol: (§5) A 20 mg/mL compound stock solution in BHI medium is prepared. In a 96-well plate, the compound solution is diluted serially (the concentration is halved at each step) to obtain the following final concentrations after addition of the bacteria suspension: 10 mg/mL; 5 mg/mL; 2.5 mg/mL; 1.25 mg/mL; 0.625 mg/mL; 0.31 mg/mL; 0.15 mg/mL; 0.08 mg/mL; 0.04 mg/mL; 0.02 mg/mL. Wells containing a mixture of penicillin and streptomycin antibiotics are used as a positive control. Compound-free medium is used as a growth control. A volume of bacterial suspension equal to 0.5*10^6 bacteria/mL is added to each well containing the compound and the controls. The dish is incubated at 37° C. for 24 hours. The lowest compound concentration at which no turbidity of the culture medium is evident is defined as MIC. For the calculation of MBC, aliquots equal to 50 μL are taken from the wells showing evident no turbidity of the medium and are plated on BHI agar plates for 48 hours. […] Bacterial suspensions taken from the positive control (growth medium only) and the negative control (growth medium with Ampicilin 100 μg/mL) are also seeded.
as §4

[3] = system: S. Aureus (ATCC 25923); assay: Determination of the minimum inhibitory concentration (MIC); conditions: Staphylococcus aureus, ATCC25923
Protocol: as §1, §2, §3
(§6) The compounds according to Examples 1, 3, 5, 6, and 7 were tested on bacterial strains different from S. mutans with the same methods described above, obtaining the MIC and MBC values reported in Table 2.

[4] = system: S. Mitis (ATCC 49456); assay: as above; conditions: Streptococcus mitis, ATCC49456
Protocol: as §1, §2, §3, §6

[5] = system: S. Sanguis (ATCC 10556); assay: as above
Protocol: as §1, §2, §3, §6

[6] = system: E. coli (ATCC25922); assay: as above; conditions: Escherichia coli
Protocol: as §1, §2, §3, §6

[7] = system: S. Aureus (ATCC 25923); assay: Determination of the minimum bactericidal concentration (MBC)
Protocol: as §5, §6

[8] = system: S. Mitis (ATCC 49456); assay: as above
Protocol: as §5, §6

[9] = system: S. Sanguis (ATCC 10556); assay: as above
Protocol: as §5, §6

[10] = system: E. coli (ATCC25922); assay: as above
Protocol: as §5, §6

[11] = system: bacteria grown on agar; assay: Determination of bacterial inhibition - agar diffusion test of primer formulations; conditions: for zone of inhibition at 1 % strength: 1% by weight of compound; for zone of inhibition at 5 % strength: 5% by weight of compound; for zone of inhibition at 10 % strength: 10% by weight of compound
Text: A test adapted from a commonly used method for determining the sensitivity of a bacterial strain to antibiotics in solution, known as Kirby-Bauer antibiotic testing or disc diffusion antibiotic sensitivity testing was used (Brown D F, Kothari D (1975), “Comparison of antibiotic discs from different sources”, J. Clin. Pathol. 28 (10): 779-83. Doi: 10.1136 /jcp.28.10.779). The test performed involves the use of discs imbued with a known concentration of the substance under examination that are placed on a layer of bacteria grown on agar. The diffusion of the bactericidal molecule from the disk into the agar causes the inhibition of bacterial growth in the area surrounding the disk itself where the molecule has spread with the formation of what are called zones of growth inhibition. The diameter of these inhibition zones (transparent circular regions in comparison to the bacterial film) is proportional to the antibacterial efficacy of the molecule to its concentration and to its diffusion ability in the medium.
The bactericidal properties of the compounds according to Examples 1, 3, 5, 6 and 7 were tested in various primer-type preparations, using the method “Bacterial inhibition determination-Agar diffusion test” described above. The disk soaked in the tested primer formulation without addition of compounds according to Examples 1, 3, 5, 6 and 7 was used as a negative reference.
For the tests, the following primer-type formulations were used, identified by the following codes: […]

C=C(C)C(=O)OCC[N+](C)(C)CCCCCCCCCCCC[N+](C)(C)CCOC(=O)C(=C)C [Example 2] showed an MIC [1] of 156 µg/mL and an MBC [2] of 313 µg/mL.

With C=C(C)C(=O)NCCC[N+](C)(C)CCCCCCCCCCCC[N+](C)(C)CCCNC(=O)C(=C)C.[Br-].[Br-] [Example 3] the MIC [1] was 150 µg/mL, the MIC [3] was 625 µg/mL and the MIC [4] was 620 µg/mL. The MIC [5] was 620 µg/mL, the MIC [6] was 1250 µg/mL and the MBC [2] was 310 µg/mL. The MCB [7] was 1.25 mg/mL, the MCB [8] was 0.62 mg/mL and the MCB [9] was 0.62 mg/mL. For the same compound, the MCB [10] was 1.25 mg/mL, the zone of inhibition at 1 % strength ([11]; primer L1A) was 8 mm and the zone of inhibition at 5 % strength ([11]; primer L1A) was 11 mm. For the same compound, the zone of inhibition at 10 % strength ([11]; primer L1A) was 13 mm, the zone of inhibition at 1 % strength ([11]; primer L1B) was 0 mm and the zone of inhibition at 5 % strength ([11]; primer L1B) was 7 mm. It also gave a zone of inhibition at 10 % strength ([11]; primer L1B) of 10 mm, a zone of inhibition at 1 % strength ([11]; primer L2A) of 6 mm and a zone of inhibition at 5 % strength ([11]; primer L2A) of 7 mm. The zone of inhibition at 10 % strength ([11]; primer L2A) was 10 mm, the zone of inhibition at 1 % strength ([11]; primer L2B) was 6 mm and the zone of inhibition at 5 % strength ([11]; primer L2B) was 7 mm. For the same compound, the zone of inhibition at 10 % strength ([11]; primer L2B) was 10 mm, the zone of inhibition at 1 % strength ([11]; primer R5A) was 6 mm and the zone of inhibition at 5 % strength ([11]; primer R5A) was 6 mm. For the same compound, the zone of inhibition at 10 % strength ([11]; primer R5A) was 8 mm, the zone of inhibition at 1 % strength ([11]; primer R5B) was 0 mm and the zone of inhibition at 5 % strength ([11]; primer R5B) was 0 mm. For the same compound, the zone of inhibition at 10 % strength ([11]; primer R5B) was 8 mm.

Work on C=C(C)C(=O)NCCC[N+](C)(C)CCCCCCCCCCCC[N+](C)(C)CCCNC(=O)C(=C)C.[F-].[F-] [Example 4] yielded an MIC [1] of 156 µg/mL and an MBC [2] of 156 µg/mL.

In the case of C=C(C)C(=O)OCC[N+](C)(C)Cc1ccc(C[N+](C)(C)CCOC(=O)C(=C)C)cc1.[Br-].[Br-] [Example 8], the MIC [1] is reported as 2500 µg/mL and the MBC [2] is reported as 2500 µg/mL.

— patent US20220402872A1, “PHOTOPOLYMERIZABLE ANTIBACTERIAL MONOMER” (UNIVERSITA' DEGLI STUDI DI TRIESTE, priority 2019, published 2022)
